Here are results for eleven compounds from article PMC9537541, “Synthesis and anticancer activity of new benzensulfonamides incorporating s-triazines as cyclic linkers for inhibition of carbonic anhydrase IX” (Scientific Reports, 2022).

One assay addresses T1, hCA I (Homo sapiens, UniProt P00915).
T1 construct: made in house
As to the kind of experiment: stopped-flow CO2 hydrase assay, hCA I. The assay is classed as biochemical. The note with it: stopped flow technique, mean from 3 different assays. How it is done: (§1) Target compounds of series (A) and (B) were screened as inhibitors concerning the physiologically relevant hCAs; cytosolic isoforms (hCA I and II) in addition to the transmembrane tumor related isoforms (hCA IX and XII) via a stopped-flow assay of carbonic anhydrase catalyzed CO2 hydration. Acetazolamide (AAZ), CA I drug, was also incorporated in the assays as a standard drug. […] Four CA isoforms inhibition activity was measured by assaying CA catalyzed CO2 hydration via an applied photophysics stopped-flow instrument. PRISM 3 and the Cheng-prusoff equation were used to determine the inhibition constant by non-linear least square methods as reported, and represent the mean from three different determination at least. All tested carbonic anhydrase isoforms were recombinant proteins prepared in lab as described earlier,[57].

The target of another assay is T2, hCA II (Homo sapiens, UniProt P00918).
T2 construct: made in house
As to the kind of experiment: stopped-flow CO2 hydrase assay, hCA II. The format is biochemical. The settings on record: stopped flow technique, mean from 3 different assays. On the procedure:
as §1

For a further assay, the target named is T3, hCA IX (Homo sapiens, UniProt Q16790).
T3 construct: made in house
In words: stopped-flow CO2 hydrase assay, hCA IX. The assay is classed as biochemical. The note with it: for Selectivity index (SI) I/IX: hCA IX over off-target hCA I; for Selectivity index (SI) II/IX: hCA IX over off-target hCA II; for Ki: stopped flow technique, mean from 3 different assays. On the procedure: as §1

The target of another assay is T4, hCA XII (Homo sapiens, UniProt O43570).
T4 construct: made in house
T4 sequence (O43570 25-354): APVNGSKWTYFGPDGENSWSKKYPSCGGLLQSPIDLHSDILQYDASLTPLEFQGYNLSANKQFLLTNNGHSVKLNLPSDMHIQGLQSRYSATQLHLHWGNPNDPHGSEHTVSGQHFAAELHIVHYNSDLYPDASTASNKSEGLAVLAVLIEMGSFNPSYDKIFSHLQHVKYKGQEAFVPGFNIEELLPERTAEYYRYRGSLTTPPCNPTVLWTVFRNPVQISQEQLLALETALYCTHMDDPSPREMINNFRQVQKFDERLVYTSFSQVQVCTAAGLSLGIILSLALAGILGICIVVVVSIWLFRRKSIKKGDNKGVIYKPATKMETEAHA
As to the kind of experiment: stopped-flow CO2 hydrase assay, hCA XII. The settings on record: for Selectivity index (SI) I/XII: hCA XII over off-target hCA I; for Selectivity index (SI) II/XII: hCA XII over off-target hCA II; for Ki: stopped flow technique, mean from 3 different assays. The format is biochemical. On the procedure:
as §1

The subject of the next assay is CNS cancer (SNB-75). In words: NCI single dose SRB screen, SNB-75. The settings on record: Homo sapiens, SNB-75, 48 h, 10^−5 M single dose, read-out: GI% CNS cancer (SNB-75). The format is cell-based. On the procedure:
(§2) Target compounds in series (A) and (B), were submitted to the National Cancer Institute (NCI) Developmental Therapeutic Program (www.dtp.nci.nih.gov), where they have been assessed, in vitro for their anticancer activity. Two series (A) and (B), were screened in a single dose (10 µM) versus full panel composed of 60 cancer cell lines, in accordance with protocol of drug evaluation branch, NCI, Bethesda. Sulforhodamine B (SRB) colorimetric assay was used to determine cell growth and viability,[40].
(§3) Protocol of Drug Evaluation Branch, NCI, Bethesda, was adopted in the antitumor assay. Assessment of cell growth and viability was carried out utilizing SRB assay and 48 h drug exposure protocol as previously reported,[40].

For the next assay, the system named is Renal cancer (UO-31). As to the kind of experiment: NCI single dose SRB screen, UO-31. The format is cell-based. The settings on record: Homo sapiens, UO-31, 48 h, 10^−5 M single dose, read-out: GI% Renal cancer (UO-31). How it is done: as §2, §3
The test system of assay [1] is Breast cancer (MDA-MB-468). As to the kind of experiment: NCI single dose SRB screen, MDA-MB-468. The assay is classed as cell-based. The note with it: Homo sapiens, MDA-MB-468, 48 h, 10^−5 M single dose, 48 h, SRB; read-out: GI% Breast cancer (MDA-MB-468). On the procedure: as §2, §3
A further assay has as its system Leukemia (SR). In words: NCI single dose SRB screen, SR. The format is cell-based. The note with it: 48 h, 10^−5 M single dose, read-out: GI% Leukemia (SR). How it is done:
as §2, §3

Structures can show the parent of a compound that is named as a salt.

T1 sequence (P00915 whole entry): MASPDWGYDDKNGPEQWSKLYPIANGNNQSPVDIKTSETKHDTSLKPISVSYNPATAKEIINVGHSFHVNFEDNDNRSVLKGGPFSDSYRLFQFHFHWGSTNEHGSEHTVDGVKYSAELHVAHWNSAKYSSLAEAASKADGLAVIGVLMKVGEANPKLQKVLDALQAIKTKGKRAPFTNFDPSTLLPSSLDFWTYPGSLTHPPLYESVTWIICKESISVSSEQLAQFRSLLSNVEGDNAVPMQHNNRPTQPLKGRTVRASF

Consider `CC1(C)N=C(N)N=C(N)N1c1ccc(S(N)(=O)=O)cc1` [Compound 5a, 4-(4,6-Diamino-1-phenyl-1,2-dihydro-2,2-dimethyl-1,3,5-triazin-1-yl) benzene-1-sulfonamide HCl], for which the Ki (in general, the equilibrium dissociation constant of an inhibitor or competing ligand from its target) at hCA I worked out at 0.884 µM; at hCA II, 0.913 µM; at hCA IX, 0.135 µM; at hCA XII, 3.52 µM. Moreover, the “Selectivity index (SI) I/IX” value on hCA IX worked out at 6.7. For the same compound, the “Selectivity index (SI) II/IX” value at hCA IX is 6.8. The “Selectivity index (SI) I/XII” value on hCA XII is recorded as 0.3. For the same compound, the “Selectivity index (SI) II/XII” value on hCA XII came to 0.2. Besides, the inhibition at 10 µM in the assay on CNS cancer (SNB-75) was 29%; with Renal cancer (UO-31), no more than 10%; in assay [1], no more than 10%; with Leukemia (SR) it was no more than 10%.

Take `CC1(C)N=C(N)N=C(N)N1c1ccc(S(=O)(=O)Nc2nccs2)cc1` [Compound 5c, 4-(4,6-Diamino-2,2-dimethyl-1,2-dihydro-1,3,5-triazin-1-yl)-N-(thiazol-2-yl)benzene-1-sulfonamide.HCl]: the inhibitory constant (Ki) on hCA I, at hCA II, on hCA IX and on hCA XII was greater than 10 µM throughout. Besides, the inhibition at 10 µM in the assay with CNS cancer (SNB-75) was 35%; in the assay on Renal cancer (UO-31) it was 11%; in assay [1], no more than 10%; in the assay on Leukemia (SR), no more than 10%.

Regarding `NC1=NC2(CCCC2)N(c2ccc(S(N)(=O)=O)cc2)C(N)=N1` [Compound 6a, 4-(7,9-Diamino-6,8,10-triazaspiro[4.5]deca-7,9-dien-6-yl) benzene-1-sulfonamide HCl], the Ki on hCA I was determined as 0.628 µM; at hCA II it was 0.832 µM; at hCA IX, 1.06 µM; at hCA XII, 5.34 µM. In addition, the “Selectivity index (SI) I/IX” value at hCA IX came out at 0.6. Moreover, the “Selectivity index (SI) II/IX” value at hCA IX was found to be 0.8. For the same compound, at hCA XII, the “Selectivity index (SI) I/XII” value was 0.1. Also, the “Selectivity index (SI) II/XII” value at hCA XII is on record as 0.2. The inhibition at 10 µM is no more than 10% with CNS cancer (SNB-75), 19% in the assay on Renal cancer (UO-31), 18% in assay [1] and 13% with Leukemia (SR).

As to `NC1=NC2(CCCCC2)N(c2ccc(S(N)(=O)=O)cc2)C(N)=N1` [Compound 6b, 4-(2,4-Diamino-1,3,5-triazaspiro[5.5]undeca-2,4-dien-1-yl)benzene-1-sulfonamide.HCl], the Ki is 0.437 µM on hCA I, 0.915 µM on hCA II, 1.16 µM on hCA IX and 4.85 µM on hCA XII. Further, the “Selectivity index (SI) I/IX” value at hCA IX was 0.4. Also, the “Selectivity index (SI) II/IX” value on hCA IX amounted to 0.8. In addition, the “Selectivity index (SI) I/XII” value on hCA XII is given as 0.1. In addition, on hCA XII, the “Selectivity index (SI) II/XII” value is reported as 0.2. Further, the inhibition at 10 µM was 28% in the assay with CNS cancer (SNB-75), no more than 10% in the assay on Renal cancer (UO-31), no more than 10% in assay [1] and no more than 10% in the assay with Leukemia (SR).

Take `CC1CCC2(CC1)N=C(N)N=C(N)N2c1ccc(S(N)(=O)=O)cc1` (centres unmarked) [Compound 6c, 4-(2,4-Diamino-9-methyl-1,3,5-triazaspiro[5.5]undeca-2,4-dien-1-yl)benzene-1-sulfonamide.HCl]: the Ki on hCA I is 0.145 µM; at hCA II it was 0.179 µM; at hCA IX, 1.85 µM; at hCA XII it was 4.91 µM. At hCA IX, the “Selectivity index (SI) I/IX” value came out at 0.1. Moreover, the “Selectivity index (SI) II/IX” value on hCA IX is 0.1. Moreover, the “Selectivity index (SI) I/XII” value on hCA XII was 0.02. Besides, the “Selectivity index (SI) II/XII” value at hCA XII is reported as 0.04. Further, the inhibition at 10 µM in the assay on CNS cancer (SNB-75) is 21%; with Renal cancer (UO-31) it was 16%; in assay [1] it was no more than 10%; in the assay with Leukemia (SR) it was no more than 10%.

Take `NC1=NC2(CCCC2)N(c2ccc(S(=O)(=O)Nc3ccccn3)cc2)C(N)=N1` [Compound 6d, 4-(7,9-Diamino-6,8,10-triazaspiro[4.5]deca-7,9-dien-6-yl}-N-(pyridin-2-yl)benzene-1-sulfonamide.HCl]: the Ki at hCA I, at hCA II, at hCA IX and at hCA XII was greater than 10 µM throughout. Moreover, the inhibition at 10 µM with CNS cancer (SNB-75) is 30%; in the assay with Renal cancer (UO-31), 12%; in assay [1], no more than 10%; in the assay on Leukemia (SR) it was no more than 10%.

Take `NC1=NC2(CCCCC2)N(c2ccc(S(=O)(=O)Nc3ccccn3)cc2)C(N)=N1` [Compound 6e, 4-(2,4-Diamino-1,3,5-triazaspiro[5.5]undeca-2,4-dien-1-yl)-N-(pyridin-2-yl)benzene-1-sulfonamide.HCl]: the Ki at hCA I, at hCA II, on hCA IX and on hCA XII was greater than 10 µM in each case. In addition, the inhibition at 10 µM in the assay with CNS cancer (SNB-75) is no more than 10%; with Renal cancer (UO-31), 11%; in assay [1] it was no more than 10%; with Leukemia (SR) it was no more than 10%.

`CC1CCC2(CC1)N=C(N)N=C(N)N2c1ccc(S(=O)(=O)Nc2ccccn2)cc1` (centres unmarked) [Compound 6f., 4-(2,4-Diamino-9-methyl-1,3,5-triazaspiro[5.5]undeca-2,4-dien-1-yl)-N-(pyridin-2-yl)benzene-1-sulfonamide.HCl]: the Ki on hCA I, on hCA II, at hCA IX and on hCA XII was greater than 10 µM each time. Besides, the inhibition at 10 µM with CNS cancer (SNB-75) is 23%; in the assay with Renal cancer (UO-31), 11%; in assay [1] it was no more than 10%; in the assay with Leukemia (SR), no more than 10%.

Regarding `NC1=NC2(CCCCCC2)N(c2ccc(S(=O)(=O)Nc3ccccn3)cc2)C(N)=N1` [Compound 6g, 4-(2,4-Diamino-1,3,5-triazaspiro[5.6]dodeca-2,4-dien-1-yl)-N-(pyridin-2-yl)benzene-1-sulfonamide.HCl], the Ki on hCA I, on hCA II, on hCA IX and at hCA XII was greater than 10 µM in each case. Further, the inhibition at 10 µM with CNS cancer (SNB-75) was 33%; in the assay with Renal cancer (UO-31), 14%; in assay [1], no more than 10%; in the assay on Leukemia (SR) it was no more than 10%.

As to `NC1=NC2(CCCC2)N(c2ccc(S(=O)(=O)Nc3nccs3)cc2)C(N)=N1` [Compound 6h, 4-{7,9-Diamino-6,8,10-triazaspiro[4.5]deca-7,9-dien-6-yl}-N-(1,3-thiazol-2-yl)benzene-1-sulfonamide.HCl], the Ki on hCA I, on hCA II, at hCA IX and on hCA XII was greater than 10 µM in each case. Moreover, the inhibition at 10 µM in the assay with CNS cancer (SNB-75) was no more than 10%; with Renal cancer (UO-31) it was 17%; in assay [1] it was no more than 10%; in the assay with Leukemia (SR) it was no more than 10%.

On to `NC1=NC2(CCCCC2)N(c2ccc(S(=O)(=O)Nc3nccs3)cc2)C(N)=N1` [Compound 6i, 4-(2,4-Diamino-1,3,5-triazaspiro[5.5]undeca-2,4-dien-1-yl)-N-(1,3-thiazol-2-yl)benzene-1-sulfonamide.HCl], for which the Ki at hCA I, on hCA II, at hCA IX and at hCA XII was greater than 10 µM in each case. The inhibition at 10 µM was no more than 10% in the assay on CNS cancer (SNB-75), 14% with Renal cancer (UO-31), no more than 10% in assay [1] and no more than 10% with Leukemia (SR).
